# Patent US6451738B1, “Substituted thienyl(Amino)-sulphonyl(thio)ureas as herbicides” (Bayer Aktiengesellschaft, priority 1996, dated 2002)
# Key:
# Alopecurus [1] = assay: Pre-emergence Test/Greenhouse; assay type: in vivo; settings: 4 g of ai./ha, after three weeks, 0%=no effect, 100%=total destruction
# Method: (§1) Solvent: 5 parts by weight of acetone
# (§2) Emulsifier: 1 part by weight of alkylaryl polyglycol ether
# (§3) To produce a suitable preparation of active compound, 1 part by weight of active compound is mixed with the stated amount of solvent, the stated amount of emulsifier is added and the concentrate is diluted with water to the desired concentration.
# (§4) Seeds of the test plants are sown in normal soil. After about 24 hours, the soil is sprayed with the preparation of active compound in such a way as to apply the particular amounts of active compound desired per unit area. The concentration of the spray liquor is chosen so that the particular amounts of active compound desired are applied in 1000 l of water/ha.
# (§5) After three weeks, the degree of damage to the plants is rated in % damage in comparison with the development of the untreated control.
# (§6) 0%=no effect (like untreated control)
# Amaranthus [2] = assay: Pre-emergence Test/Greenhouse; assay type: in vivo; settings: 504 h, after three weeks, 0%=no effect, 100%=total destruction, read-out: degree of damage, Amaranthus; for pest or weed control at 125 g/ha: 125 g of ai./ha; for pest or weed control at 60 g/ha: 60 g of ai./ha
# Method: as §1, §2, §3, §4, §5, §6
# Barley = assay: Pre-emergence Test/Greenhouse; assay type: in vivo; settings: 4 g of ai./ha, after three weeks, 0%=no effect, 100%=total destruction
# Method: as §1, §2, §3, §4, §5, §6
# Chenopodium [3] = assay: Pre-emergence Test/Greenhouse; assay type: in vivo; settings: after three weeks, 0%=no effect, 100%=total destruction
# Method: as §1, §2, §3, §4, §5, §6
# Lolium = assay: Pre-emergence Test/Greenhouse; assay type: in vivo; settings: after three weeks, 0%=no effect, 100%=total destruction
# Method: as §1, §2, §3, §4, §5, §6
# Matricaria [4] = assay: Pre-emergence Test/Greenhouse; assay type: in vivo; settings: after three weeks, 0%=no effect, 100%=total destruction
# Method: as §1, §2, §3, §4, §5, §6
# Veronica = assay: Pre-emergence Test/Greenhouse; assay type: in vivo; settings: 4 g of ai./ha, after three weeks, 0%=no effect, 100%=total destruction
# Method: as §1, §2, §3, §4, §5, §6
# Wheat = assay: Pre-emergence Test/Greenhouse; assay type: in vivo; settings: after three weeks, 0%=no effect, 100%=total destruction
# Method: as §1, §2, §3, §4, §5, §6
# weeds [5] = assay: Pre-emergence Test; assay type: in vivo; settings: in words
# Method: as §1, §2, §3, §4, §5, §6
# Abutilon [6] = assay: Post-emergence Test/Greenhouse; assay type: in vivo; settings: 60 g of ai./ha, after three weeks, 0%=no effect, 100%=total destruction
# Method: as §1, §2, §3
# (§7) Test plants which have a height of 5-15 cm are sprayed with the preparation of active compound in such a way as to apply the particular amounts of active compound desired per unit area. The concentration of the spray liquor is chosen so that the particular amounts of active compound desired are applied in 1000 l of water/ha.
# (§8) After three weeks, the degree of damage to the plants is rated in % damage in comparison to the development of the untreated control.
# as §6
# Amaranthus [7] = assay: Post-emergence Test/Greenhouse; assay type: in vivo; settings: 504 h, after three weeks, 0%=no effect, 100%=total destruction, read-out: degree of damage, Amaranthus; for pest or weed control at 60 g/ha: 60 g of ai./ha
# Method: as §1, §2, §3, §7, §8, §6
# Chenopodium [8] = assay: Post-emergence Test/Greenhouse; assay type: in vivo; settings: 60 g of ai./ha, after three weeks, 0%=no effect, 100%=total destruction
# Method: as §1, §2, §3, §7, §8, §6
# Matricaria [9] = assay: Post-emergence Test/Greenhouse; assay type: in vivo; settings: 60 g of ai./ha, after three weeks, 0%=no effect, 100%=total destruction
# Method: as §1, §2, §3, §7, §8, §6
# Xanthium = assay: Post-emergence Test/Greenhouse; assay type: in vivo; settings: 60 g of ai./ha, after three weeks, 0%=no effect, 100%=total destruction
# Method: as §1, §2, §3, §7, §8, §6
# weeds [10] = assay: Post-emergence Test; assay type: in vivo; settings: in words
# Method: as §1, §2, §3, §7, §8, §6
# Avena fatua = assay: Pre-emergence Test/Greenhouse; assay type: in vivo; settings: 125 g of ai./ha, after three weeks, 0%=no effect, 100%=total destruction
# Method: as §1, §2, §3, §4, §5, §6
# Galium = assay: Pre-emergence Test/Greenhouse; assay type: in vivo; settings: after three weeks, 0%=no effect, 100%=total destruction
# Method: as §1, §2, §3, §4, §5, §6
# Sinapis [11] = assay: Pre-emergence Test/Greenhouse; assay type: in vivo; settings: after three weeks, 0%=no effect, 100%=total destruction
# Method: as §1, §2, §3, §4, §5, §6
# Alopecurus [12] = assay: Post-emergence Test/Greenhouse; assay type: in vivo; settings: after three weeks, 0%=no effect, 100%=total destruction
# Method: as §1, §2, §3, §7, §8, §6
# Sinapis [13] = assay: Post-emergence Test/Greenhouse; assay type: in vivo; settings: after three weeks, 0%=no effect, 100%=total destruction
# Method: as §1, §2, §3, §7, §8, §6
# Echinochloa = assay: Pre-emergence Test/Greenhouse; assay type: in vivo; settings: 60 g of ai./ha, after three weeks, 0%=no effect, 100%=total destruction
# Method: as §1, §2, §3, §4, §5, §6
# Abutilon [14] = assay: Pre-emergence Test/Greenhouse; assay type: in vivo; settings: 60 g of ai./ha, after three weeks, 0%=no effect, 100%=total destruction
# Method: as §1, §2, §3, §4, §5, §6
# Setaria [15] = assay: Pre-emergence Test/Greenhouse; assay type: in vivo; settings: 60 g of ai./ha, after three weeks, 0%=no effect, 100%=total destruction
# Method: as §1, §2, §3, §4, §5, §6
# Cyperus = assay: Pre-emergence Test/Greenhouse; assay type: in vivo; settings: 60 g of ai./ha, after three weeks, 0%=no effect, 100%=total destruction
# Method: as §1, §2, §3, §4, §5, §6
# Setaria [16] = assay: Post-emergence Test/Greenhouse; assay type: in vivo; settings: 60 g of ai./ha, after three weeks, 0%=no effect, 100%=total destruction
# Method: as §1, §2, §3, §7, §8, §6
Structure (SMILES),activity against weeds (weeds [5]),"degree of damage, Abutilon (Abutilon [6])",pest or weed control at 60 g/ha (Amaranthus [7]),activity against weeds (weeds [10]),melting point,pest or weed control at 60 g/ha (Amaranthus [2]),"degree of damage, Sinapis (Sinapis [11]; 60 g of ai./ha)","degree of damage, Sinapis (Sinapis [13]; 60 g of ai./ha)",also measured
"COc1nc(C)nc(NC(=O)NS(=O)(=O)c2c(C)csc2C)n1 [Example 1, N-(4-methoxy-6-methyl-1,3,5-triazin-2-yl)-N′-(2,4-dimethyl-thien-3-yl-sulplhonyl)-urea]",very strong activity,95%,95%,strong activity,189 °C,–,–,–,"degree of damage, Alopecurus (Alopecurus [1]): 100%; pest or weed control at 4 g/ha (Amaranthus [2]; 4 g of ai./ha): 100%; degree of damage, Barley (Barley): 0%; degree of damage, Chenopodium (Chenopodium [3]; 4 g of ai./ha): 100%; degree of damage, Lolium (Lolium; 4 g of ai./ha): 100%; degree of damage, Matricaria (Matricaria [4]; 4 g of ai./ha): 100%; degree of damage, Veronica (Veronica): 100%; degree of damage, Wheat (Wheat; 4 g of ai./ha): 0%; degree of damage, Chenopodium (Chenopodium [8]): 100%; degree of damage, Matricaria (Matricaria [9]): 95%; degree of damage, Xanthium (Xanthium): 100%"
Cc1csc(C)c1S(=O)(=O)NC(=O)Nc1nc(OCC(F)(F)F)nc(N(C)C)n1 [Example 6],very strong activity,–,–,strong activity,195 °C,–,–,–,"pest or weed control at 125 g/ha (Amaranthus [2]): 90%; degree of damage, Avena fatua (Avena fatua): 80%; degree of damage, Galium (Galium; 125 g of ai./ha): 100%; degree of damage, Sinapis (Sinapis [11]; 125 g of ai./ha): 90%; degree of damage, Alopecurus (Alopecurus [12]; 125 g of ai./ha): 100%; pest or weed control at 125 g/ha (Amaranthus [7]; 125 g of ai./ha): 80%; degree of damage, Sinapis (Sinapis [13]; 125 g of ai./ha): 100%"
COc1cc(OC)nc(NC(=O)NS(=O)(=O)c2c(C)csc2C)n1 [Example 7],very strong activity,95%,95%,strong activity,198 °C,–,–,–,"degree of damage, Chenopodium (Chenopodium [3]; 60 g of ai./ha): 90%; degree of damage, Echinochloa (Echinochloa): 95%; degree of damage, Lolium (Lolium; 60 g of ai./ha): 95%; degree of damage, Matricaria (Matricaria [4]; 60 g of ai./ha): 95%; degree of damage, Wheat (Wheat; 60 g of ai./ha): 10%; degree of damage, Chenopodium (Chenopodium [8]): 95%; degree of damage, Matricaria (Matricaria [9]): 95%; degree of damage, Xanthium (Xanthium): 95%"
Cc1csc(C)c1S(=O)(=O)NC(=O)Nc1nc(Oc2ccccc2)nc(N(C)C)n1 [Example 8],very strong activity,–,–,–,173 °C,–,–,–,"pest or weed control at 125 g/ha (Amaranthus [2]): 80%; degree of damage, Avena fatua (Avena fatua): 80%; degree of damage, Galium (Galium; 125 g of ai./ha): 90%; degree of damage, Sinapis (Sinapis [11]; 125 g of ai./ha): 80%"
COc1nc(NC(=O)NS(=O)(=O)c2c(C)csc2C)nc(OC)n1 [Example 9],very strong activity,80%,100%,strong activity,168 °C,90%,90%,95%,"degree of damage, Abutilon (Abutilon [14]): 90%"
COc1nc(NC(=O)NS(=O)(=O)c2c(C)csc2C)nc(C2CC2)n1 [Example 10],very strong activity,–,–,–,180 °C,80%,–,–,"degree of damage, Galium (Galium; 60 g of ai./ha): 100%; degree of damage, Setaria (Setaria [15]): 80%"
CSc1nc(C)nc(NC(=O)NS(=O)(=O)c2c(C)csc2C)n1 [Example 11],–,–,100%,strong activity,220 °C,–,–,100%,–
CCc1nc(NC(=O)NS(=O)(=O)c2c(C)csc2C)nc(OC)n1 [Example 13],–,90%,100%,strong activity,161 °C,–,–,95%,–
Cc1cc(C)nc(NC(=O)NS(=O)(=O)c2c(C)csc2C)n1 [Example 14],very strong activity,–,100%,strong activity,240 °C,90%,90%,100%,"degree of damage, Cyperus (Cyperus): 100%; degree of damage, Alopecurus (Alopecurus [12]; 60 g of ai./ha): 80%"
COc1cc(C)nc(NC(=O)NS(=O)(=O)c2c(C)csc2C)n1 [Example 15],very strong activity,90%,100%,strong activity,140 °C,90%,100%,100%,"degree of damage, Abutilon (Abutilon [14]): 100%; degree of damage, Setaria (Setaria [16]): 90%"
COc1cc(Cl)nc(NC(=O)NS(=O)(=O)c2c(C)csc2C)n1 [Example 16],very strong activity,–,100%,strong activity,219 °C,95%,95%,95%,"degree of damage, Cyperus (Cyperus): 80%"
